Results published in patent US20200188361A1, “USE OF MITOCHONDRIAL ACTIVITY INHIBITORS FOR THE TREATMENT OF POOR PROGNOSIS ACUTE MYELOID LEUKEMIA” (UNIVERSITE DE MONTREAL, priority 2016, published 2020).
Counter-ions that a name gives are not always drawn. Like-named read-outs stand apart in the source and are kept apart here.

Tests used:
OCI-AML3 cells = experiment: Dose-response curves in AML cell line (6-day culture assay in 384-well plates); format: cell-based; settings: dose-response curves FIGS. 5H-J
Description: FIGS. 5A-5J show the results on experiments assessing the mode of action of Mubritinib for mediating tumor cell death. FIG. 5A: OCI-AML3 leukemic cells were either pre-incubated for 4 hours with 6 mM N-acetyl-cysteine (NAC), a reactive oxygen species (ROS) scavenger, or with vehicle (water) before being treated with 100 nM Mubritinib for 24 h or vehicle (DMSO). […] FIGS. 5C and 5D show the levels of reduced and oxidized levels of glutathione, respectively, in OCI-AML3 treated or not with Mubritinib, as detected by liquid chromatography-mass spectrometry (LC/MS). […] FIG. 5G is a graph depicting dose-response curves upon Mubritinib treatment (6-day culture assay in 384-well plates) of OCI-AML3 and OCI-AML5 cell lines. FIGS. 5H-J are graphs depicting dose-response curves following treatment of OCI-AML3 and OCI-AML5 cell lines with other ETC inhibitors, namely Oligomycin (inhibitor of complex V, FIG. 5H), Rotenone (inhibitor of complex I, FIG. 5I) and Deguelin (inhibitor of complex I, FIG. 5J).
OCI-AML3 cells were maintained in alpha-MEM, 20% FBS whereas breat tumor BT474 cells were maintained in DMEM 10% FBS.
(§1) Patient cells were seeded in 384-well plates at a density of 5,000 cells in 50 μL per well. In the initial screen, compounds were added to seeded cells in serial dilutions (10 dilutions, 1:3, starting from 10 μM or 20 μM), in duplicates. Cells treated with 0.1% DMSO without additional compound were used as negative controls. Viable cell counts per well were evaluated after 6 days of culture using the CellTiterGlo® assay (Promega®) according to the manufacturer's instruction. The percent of inhibition was calculated as follows: 100−(100×(mean luminescence(compound)/mean luminescence(DMSO)); where mean-luminescence(compound) corresponds to the average of luminescent signals obtained for the compound-treated cells, and mean-luminescence(DMSO) corresponds to the average of luminescent signals obtained for the control DMSO-treated cells.

[1] = test system: HOX-high AML patient cells; experiment: Primary chemical screen of 60 compounds, cell dose-response viability assay (CellTiterGlo, 6 days); format: cell-based, human; settings: for EC50: read-out: MEAN EC50 HOX-high
Description: (§2) frozen AML mono-nucleated cells were thawed at 37° C. in Iscove's modified Dulbecco's medium (IMDM) containing 20% FBS and DNase I (100 μg/mL).
(§3) All powders were dissolved in DMSO and diluted in culture medium immediately before use. Final DMSO concentration in all conditions was 0.1%. The 60 compounds were purchased from various suppliers including Santa Cruz, Selleckchem, Calbiochem, AdooQ Bioscience, Cayman chemical and Synkinase.
(§4) Patient cells were seeded in 384-well plates at a density of 5,000 cells in 50 μL per well. In the initial screen, compounds were added to seeded cells in serial dilutions (10 dilutions, 1:3, starting from 10 μM or 20 μM), in duplicates. Cells treated with 0.1% DMSO without additional compound were used as negative controls. Viable cell counts per well were evaluated after 6 days of culture using the CellTiterGlo® assay (Promega®) according to the manufacturer's instruction.
(§5) Using high expression of HOXA9 and HOXA10 as a surrogate for the detection of HOX-network-high patient samples, the survival of HOX-high versus HOX-med/low specimens contacted with 60 inhibitors targeting receptor tyrosine kinases (RTK), members of the RAS and PI3K pathways, was assessed (FIG. 2A, Table 4).

[2] = test system: HOX-med/low AML patient cells; experiment: as above; format: cell-based, human; settings: read-out: MEAN EC50 HOX-med/low
Description: as §2, §3, §4, §5

AML patient specimens = experiment: Cell dose-response viability assay on AML patient specimens (primary and validation screen); format: cell-based, human; settings: all 41 AML patient specimens tested, primary screen (FIG. 4D)
Description: as §2, §1

[3] = Homo sapiens, 144 h, primary screen, mean over HOX-high patient specimens, 6 days culture, top concentration 10 μM or 20 μM
[4] = ratio of mean EC50 HOX-high to mean EC50 HOX-med/low
[5] = Homo sapiens, 144 h, primary screen, mean over HOX-med/low patient specimens, 6 days culture, top concentration 10 μM or 20 μM
[6] = primary screen, mean over HOX-high patient specimens, 6 days culture, top concentration 10 μM or 20 μM
[7] = primary screen, mean over HOX-med/low patient specimens, 6 days culture, top concentration 10 μM or 20 μM

SMILES	EC50 [1, 3]	FOLD CHANGE High/Med-low [1, 4]	EC50 [2, 5]	also measured
CC[C@H]1/C=C/C=C/C[C@@H](C)[C@H](O)[C@@](C)(O)C(=O)[C@@H](C)[C@H](O)[C@@H](C)C(=O)[C@@H](C)[C@H](O)[C@@H](C)/C=C/C(=O)O[C@@H]2[C@H](C)[C@H](CC1)O[C@]1(CC[C@H](C)[C@H](C[C@@H](C)O)O1)[C@H]2C [Oligomycin]	–	–	–	sensitivity of OCI-AML3 relative to OCI-AML5 (OCI-AML3 cells): more sensitive than OCI-AML5
C=CCNC1=C2C[C@@H](C)C[C@H](OC)[C@H](O)[C@@H](C)/C=C(\C)[C@H](OC(N)=O)[C@@H](OC)/C=C\C=C(/C)C(=O)NC(=CC1=O)C2=O [Tanespimycin 17AAG, Tanespimycin]	0.314 µM	1.3	0.249 µM	–
CCCS(=O)(=O)Nc1ccc(F)c(C(=O)c2c[nH]c3ncc(-c4ccc(Cl)cc4)cc23)c1F [Vemurafenib]	9.7 µM	1.2	8.44 µM	–
Cc1[nH]c(/C=C2\C(=O)Nc3cc(-c4ccccc4)ccc32)c(C)c1CCC(=O)O [PDGFR Tyrosine Kinase Inhibitor VII]	–	2.1	–	EC50 [1, 6]: 6 µM; EC50 [2, 7]: 2.84 µM
CNC(=O)c1cc(Oc2ccc(NC(=O)Nc3ccc(Cl)c(C(F)(F)F)c3)cc2)ccn1 [Sorafenib Tosylate]	1.1 µM	–	0.936 µM	FOLD CHANGE High/Med-low [1]: 1.2
Cc1nc(Nc2ncc(C(=O)Nc3c(C)cccc3Cl)s2)cc(N2CCN(CCO)CC2)n1 [Dasatinib]	0.774 µM	2.4	0.322 µM	–
CS(=O)(=O)CCNCc1ccc(-c2ccc3ncnc(Nc4ccc(OCc5cccc(F)c5)c(Cl)c4)c3c2)o1 [Lapatinib ditosylate., Lapatinib ditosylate]	8.87 µM	0.9	9.92 µM	sensitivity of AML patient specimens (AML patient specimens): resistant
Nc1ncnc2c1c(-c1cccc(OCc3ccccc3)c1)cn2C1CC(CN2CCC2)C1 (stereo not shown) [NVPAEW541]	–	1.0	–	EC50 [1, 6]: 1.73 µM; EC50 [2, 7]: 1.77 µM
COc1cc2c(cc1OC)[C@@H]1C(=O)c3ccc4c(c3O[C@@H]1CO2)C=CC(C)(C)O4 [Deguelin]	–	–	–	sensitivity of OCI-AML3 relative to OCI-AML5 (OCI-AML3 cells): more sensitive than OCI-AML5
Cc1nc2cc3nc(-c4cccs4)cnc3cc2n1C [AGL2043]	–	1.1	–	EC50 [1, 6]: 8.88 µM; EC50 [2, 7]: 8.38 µM
Cn1cc(C2=C(c3cn(C4CCN(Cc5ccccn5)CC4)c4ccccc34)C(=O)NC2=O)c2ccccc21 [Enzastaurin]	9.84 µM	1.0	> 10 µM	–
C=C(C)[C@H]1Cc2c(ccc3c2O[C@@H]2COc4cc(OC)c(OC)cc4[C@@H]2C3=O)O1 [Rotenone]	–	–	–	sensitivity of OCI-AML3 relative to OCI-AML5 (OCI-AML3 cells): more sensitive than OCI-AML5
COc1cccc2cc(-c3nc([C@H]4CC[C@H](C(=O)O)CC4)n4ncnc(N)c34)[nH]c12 [OSI027, (1r,4r)-4-(4-amino-5-(7-methoxy-1H-indol-2-yl)imidazo[1,5-f][1,2,4]triazin-7-yl)cyclohexanecarboxylic acid]	2.03 µM	3.1	0.666 µM	–
CC(=O)Nc1cccc(-n2c(=O)n(C3CC3)c(=O)c3c(Nc4ccc(I)cc4F)n(C)c(=O)c(C)c32)c1 [Trametinib GSK1120212, Trametinib]	0.0253 µM	1.4	0.018 µM	–
N#Cc1ccc(C(=O)Nc2cc(N3CCCCC3)ccc2N2CCCCC2)o1 [cFMS Receptor Inhibitor IV]	–	1.0	–	EC50 [1, 6]: > 10 µM; EC50 [2, 7]: 9.57 µM
N#CC(=C(/N)Sc1ccccc1N)/C(C#N)=C(\N)Sc1ccccc1N [U0126]	–	–	–	FOLD CHANGE High/Med-low [1]: 1.1; EC50 ([1]; Homo sapiens, 144 h): 4.48 µM; EC50 ([2]; Homo sapiens, 144 h): 4.11 µM
Cc1ccc(C(=O)Nc2cccc(C(F)(F)F)c2)cc1Nc1nc(-c2cccnc2)nc2c1cnn2C [NVPBHG712]	–	0.9	–	EC50 [1, 6]: 4.44 µM; EC50 [2, 7]: 5.21 µM
